Holding throughout (type): cell-based
The test system of one assay is NG108-15 neurons. Put plainly: Action potential recording with 3-electrode MagEle. The note with it: 10 uM; cells differentiated by 2% FBS, 10 μM Forskolin. The text has this:
When manufacturing multiple electrodes using MagEle, two types of magnets, a fixed magnet, and an electrode magnet, are used. Wrap the fixed electrodes in a non-conductive material such as parafilm, and attach strip-shaped electrodes made of 2 to 4 pieces of aluminum foil.
This aluminum foil electrode is fixed by magnetic force to the electrode magnet from below, the side surface of the electrode magnet other than facing the cells is wrapped with a non-conductive material such as parafilm to insulate it, and “Clip on ground” is attached above the fixed magnet. A holder for fixing the manipulator is attached (FIG. 20).
Recording was performed from NG108-15 neurons differentiated by 2% FBS, 10 μM Forskolin treatment using the 3-electrode MagEle prepared in (8-1) above (FIG. 22).

A further assay relates to NG108-15 cells. Nature of the assay: Intracellular potential recording of cultured nerve cells with C-M magnet electrode. The note with it: final external fluid concentration 800 μM; 2 days neural differentiation. The procedure:
NG108-15 cells were used for the purpose of showing that recording is possible from cultured nerve cells. NG108-15 cells (neuroblastoma-glioma hybrid cells) were cultured in a culture medium containing DMEM (Sigma-Aldrich), HAT supplement (Thermofisher) and 10% FBS (Biowest). NG108-15 was seeded on a cover glass that was coated with 0.1% Polyethyleneimine (pH8.4, 150 mM Sodium Tetra-Borate (Wako)), and cultured in the culture medium, in which FBS concentration was reduced to 5% from the above culture medium, and the nerve differentiation was induced by adding 500 μM Ibuprofen (Wako). […]
PEI and PEG-gold coated magnetic nanoparticles were mixed and left at room temperature for three hours. This mixed solution is moved to the cell-adhesive surface of the neodymium magnet and left for additional fifteen minutes to magnetically bond the gold nanoparticles to the neodymium magnet electrode. […]
Spontaneous action potentials were recorded by placing C-M electrode on cells seeded on coverslips. […]
In addition to the spontaneous action potential, the following experiment was conducted to confirm whether the neuronal activity by the neurotransmitter glutamate can be recorded. […] Glutamic acid was administered to the extracellular fluid (final external fluid concentration 800 μM), and the response mediated by glutamate receptors was recorded. […]

The subject of assay [1] is differentiated NG108-15 cells. Nature of the assay: Intracellular potential measurement by patch clamp method. The conditions noted are these: 10 mM. The procedure: More specifically, a solution containing 2% H.A.T. in DMEM (Sigma-Aldrich) containing 10% FBS (Biowest) was used as the culture medium. According to the literature, in order to differentiate NG108-15 cells into nerve-like cells, FBS in the culture medium is reduced to 2% and the intracellular cAMP concentration is increased by applying the membrane-permeable cAMP (Dibutyryl-cAMP), but in this protocol, it was replaced with 10 uM forskolin. The culture medium was changed at intervals of 2 to 3 days.
This experiment verified that the intracellular potential was induced by glutamate in NG108-15 differentiated cells adjusted in (1-1) using the conventional patch-clamp method.
More specifically, using a glass pipette filled with an intracellular electrolyte solution containing 10 mM glutamate to differentiated NG108-15 cells, the cell membranes were tightly adhered and the glass pipette and cells were electrically integrated.
Background: Patch clamp records ionic current or voltage across a cell membrane.

Assay [2] deals with differentiated NG108-15 cells. Nature of the assay: Intracellular recording with integrated electrode having nano-protrusion structure at the tip, pressed by manipulator. The note with it: 10 mM, integrated electrode fixed with manipulator. On the procedure:
More specifically, 0.5 μl PEI (10 mg/ml), 20 ul gold-coated magnetic nanoparticles (NITmagold Cit manufactured by na noimmunotech), and 5 μl of 5 times the concentration HBPS (final concentration of calcium and magnesium is 1 mM) were mixed. It was kept at room temperature for 30 minutes or more. The recording surface of the magnet electrode is fixed upward, the mixed solution is dropped onto the recording surface, adsorbed by magnetic force, and the solution is evaporated at room temperature (Magele).
As shown in the middle drawing of FIG. 3, the entire side surface of the electrode was inserted into a silicon tube (Tyg on) of an insulator to cover it, and the area in contact with the extracellular fluid was further covered with aluminum foil as a ground material. Through the above process, the integrated electrode of the present invention was produced.
The integrated electrode was pressed onto the differentiated NG108-15 cells using a manipulator (FIG. 2), and the integrated electrode was fixed in a state where the nano-protrusion at the tip penetrated the cell membrane and the cells were not crushed. […]
After activating the differentiated NG108-15 cells with 10 mM glutamate, the intracellular potential was measured with an integrated electrode fixed with a manipulator.

In assay [3] the test system is cardiomyocyte-like cells (iCell Cardiomyocyte2). Put plainly: Action potential recording of cardiomyocyte-like cells on conductive glass, charge amplifier (CHAMPL) mode. The note with it: final concentration 100 μM in physiological saline, room temperature. On the procedure:
Experiments were conducted using myocardial-like cells (iCell Cardiomyocyte2, CDI) as a typical example of cells with low adhesion efficiency to the surface of conductive glass. In order to improve the adhesiveness, the cells were cultured on the surface of conductive glass coated with collagen (Collagen) in a grid pattern in advance. Gold-coated magnetic nanoparticles were introduced into myocardial-like cells and penetrated the cell membrane by a magnetic field. Sodium channels were activated by sodium channel openers such as veratridine and the resulting action potentials were recorded. This experiment was performed at room temperature. […]
Next, using SLO, gold-coated magnetic nanoparticles were introduced into the cell. […] Two days later, the culture medium was replaced with physiological saline before the experiment, and the action potentials of the cells were recorded at room temperature using the charge amplifier mode (ChargeAmpLifier (CHAMPL) mode) (FIG. 10).
However, since the spontaneous action potential could not be observed in this sample (data not shown), Veratridine (Sigma-Aldrich), which acts as a sodium channel opener, was administered to a final concentration of 100 μM in physiological saline. […] Slow depolarization was observed 40 seconds after Veratridine administration, followed by spontaneous action potentials recorded (FIG. 11).

For the molecule `CC(=O)OCC[N+](C)(C)C` [Ach], the “activity of nerve cell groups” value in the assay on NG108-15 neurons is listed as “activity of all nerve cell groups was increased”.
Take `N[C@@H](CCC(=O)O)C(=O)O` [Glutamate, Glutamic acid]: in the assay on NG108-15 cells, the “membrane potential response mediated by glutamate receptors” value is on record as “depolarization (upward change) response of the membrane potential” and the “time for membrane potential change to return to baseline” value is on record as “about 90 seconds”. Further, the intracellular potential response result in assay [1] was “induced a slow depolarization and action potentials”. For the same molecule, in assay [2], the intracellular potential response result is “Action potentials and slow depolarization were recorded”.
As for `COc1ccc(C(=O)O[C@H]2CC[C@@]3(C)[C@@H]4CC[C@H]5[C@]6(O)C[C@H](O)[C@@]7(O)[C@@H](CN8C[C@@H](C)CC[C@H]8[C@@]7(C)O)[C@]6(O)C[C@@]53O[C@]24O)cc1OC` [Veratridine], in assay [3], the “time to slow depolarization after administration” value stood at 40 s.
